From patent US20260306500A1, “METHOD OF INHIBITING ADENOSINE TRIPHOSPHATE SECRETION, METHOD OF INHIBITING HEPATIC STELLATE CELL ACTIVATION, METHOD OF DEACTIVATING HEPATIC STELLATE CELL, METHOD OF TREATING HEPATIC FIBROSIS, METHOD OF TREATING NON-ALCOHOLIC STEATOHEPATITIS, AND METHOD OF TREATING PSORIASIS” (Kurume University, priority 2023, published 2026)

Legend:
[1] = PEP; cited from earlier work
[2] = PEP; cited from earlier work; remark: listed apart in the source
[3] = biological target: T1, V-ATPase (Bos taurus, UniProt P31404+P31408); assay: ATP-dependent proton transport by V-ATPase (acridine orange fluorescence quenching); type: biochemical, cattle; details: role: inhibitor
T1 construct: Chromaffin granule membranes were prepared from adrenal glands collected from slaughtered cattle; from tissue; host or cells: cattle adrenal glands, chromaffin granule membranes (sucrose density gradient)
T1 sequence (P31404 whole entry, looked up): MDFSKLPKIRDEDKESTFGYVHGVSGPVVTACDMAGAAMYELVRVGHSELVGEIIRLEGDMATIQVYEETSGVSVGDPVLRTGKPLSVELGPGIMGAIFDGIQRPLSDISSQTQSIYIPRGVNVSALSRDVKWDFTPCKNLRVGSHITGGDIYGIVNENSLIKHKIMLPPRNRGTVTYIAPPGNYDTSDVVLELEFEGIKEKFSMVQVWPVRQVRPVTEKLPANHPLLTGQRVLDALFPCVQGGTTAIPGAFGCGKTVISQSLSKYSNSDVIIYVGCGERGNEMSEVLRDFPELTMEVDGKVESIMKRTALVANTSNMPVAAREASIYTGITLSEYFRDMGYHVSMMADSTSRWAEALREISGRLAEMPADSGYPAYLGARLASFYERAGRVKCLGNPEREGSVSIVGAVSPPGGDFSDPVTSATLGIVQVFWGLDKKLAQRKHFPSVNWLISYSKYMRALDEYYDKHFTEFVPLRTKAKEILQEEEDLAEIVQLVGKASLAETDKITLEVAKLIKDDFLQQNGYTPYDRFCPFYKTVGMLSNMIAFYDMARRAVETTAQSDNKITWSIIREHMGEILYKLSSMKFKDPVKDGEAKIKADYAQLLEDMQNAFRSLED
T1 sequence (P31408 whole entry, looked up): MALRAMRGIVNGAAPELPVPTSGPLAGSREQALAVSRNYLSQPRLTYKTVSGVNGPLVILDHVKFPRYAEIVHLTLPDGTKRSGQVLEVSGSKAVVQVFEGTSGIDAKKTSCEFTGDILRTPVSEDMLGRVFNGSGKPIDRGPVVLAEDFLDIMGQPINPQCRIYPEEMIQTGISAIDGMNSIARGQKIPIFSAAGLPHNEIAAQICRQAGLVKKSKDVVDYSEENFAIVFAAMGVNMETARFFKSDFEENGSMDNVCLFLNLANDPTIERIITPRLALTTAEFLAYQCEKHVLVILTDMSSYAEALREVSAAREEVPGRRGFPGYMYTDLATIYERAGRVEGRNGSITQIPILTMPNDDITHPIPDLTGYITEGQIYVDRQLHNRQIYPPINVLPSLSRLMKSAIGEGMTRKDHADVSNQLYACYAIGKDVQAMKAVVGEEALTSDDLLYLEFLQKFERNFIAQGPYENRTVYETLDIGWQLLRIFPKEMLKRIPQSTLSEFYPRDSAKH
Protocol: Chromaffin granule membranes were prepared from adrenal glands collected from slaughtered cattle according to Reference A (Nathan Nelson et al., 1988, Chromaffin Granule Proton Pump, Methods in Enzymology, 157, 619-633). Chromaffin granule membranes prepared by sucrose density gradient centrifugation were suspended in 2 ml of SME buffer (20 mM MOPS-tris (pH 7.0), 0.3 M sucrose, 5 mM EDTA, 10 μg/ml leupeptin, and 10 μg/ml pepstatin)+25% glycerol, and the resulting suspension was aliquoted and stored at −80° C. Under these conditions, the ATP transport activity, the V-ATPase activity, and the catecholamine transport activity remain fully active for at least one year.
ATP-dependent proton transport by V-ATPase was measured according to Reference B. Proton transport activity was measured using a spectrofluorometer at excitation wavelength of 492 nm and a fluorescence wavelength 540 nm, wherein fluorescence quenching of acridine orange was used as an index (N=2). The transmembrane potential generated was measured using a spectrofluorometer at an excitation wavelength of 580 nm and a fluorescence wavelength of 630 nm, wherein fluorescence quenching of oxonol-V was used as an index (N=2). The acridine measurement liquid (2 ml) contained 20 mM MOPS-tris (pH 7.0), 0.2 M sucrose, 0.1 M potassium chloride, 5 mM magnesium acetate, 0.2 μg valinomycin, 2 μM acridine orange, and about 20 μg of chromaffin granules. The oxonol-V measurement liquid (2 ml) contained 20 mM MOPS-tris (pH 7.0), 0.3 M sucrose, 5 mM magnesium acetate, 5 μM oxonol-V, and about 20 μg of chromaffin granules.
Chromaffin granule membrane vesicles were prepared in the same manner as in Example 5, and uptake of radiolabeled ATP into the vesicles was measured. Transport activity of catecholamine (dopamine) and ATP-dependent proton transport by V-ATPase were also measured in the same manner as in Example 5.

[4] = tested on: isolated chromaffin granules; details: role: inhibitor; 1 to 10 mM PEP; cited from earlier work
[5] = tested on: V-ATPase; assay: Inhibitory effect on V-ATPase (data not shown)
[6] = cited from earlier work
[7] = tested on: mouse liver; assay: Thioacetamide-induced hepatic fibrosis in mice: histology, immunostaining and fibrosis score; type: in vivo; details: 200 mg/kg p.o. three times per week
Protocol: Wild-type mice, […] (manufactured by Charles River Japan), were housed on a 12-hour light/dark cycle and fed a standard solid diet (5.4% fat, CRF-1, manufactured by Oriental Yeast Co., Ltd.) ad libitum. Thioacetamide (TAA, manufactured by FUJIFILM Wako Pure Chemical Corporation) was dissolved in physiological saline at 0.9% w/v. Eight-week-old mice were randomly assigned to three groups and continuously treated for 9 weeks according to the following scheme. At Week 9, all mice were euthanized 1 hour after administration of physiological saline or IMG.
Normal control group (N=6): Physiological saline was intraperitoneally administered to mice three times per week. Eight hours after each administration, a vehicle was orally administered to the mice.
TAA group (N=6): TAA (50 mg/kg, intraperitoneal) was administered to mice. Eight hours thereafter, physiological saline was orally administered to the mice. This treatment was performed three times per week for a total of 9 weeks.
TAA+IMG group (N=6): During the first week, physiological saline was orally administered to mice. Thereafter, imeglimin (IMG) at 200 mg/kg was orally administered three times per week for 8 weeks. The administration of IMG was performed 8 hours after intraperitoneal administration of TAA (50 mg/kg).
For immunohistochemical analysis, liver samples were fixed in 4% paraformaldehyde, embedded in paraffin, and then sectioned. The sections were stained with HE or PSR. In addition, the paraffin-embedded sections were subjected to immunostaining using an α-SMA monoclonal antibody (1:500, catalog No. A5228, manufactured by Sigma-Aldrich) and an F4/80 monoclonal antibody (1:200, catalog No. MCA497GA, manufactured by AbD Serotec). The cell specimens were observed using a microscope (BZ-X700 series, manufactured by Keyence) or a confocal laser microscope (FV1000, manufactured by Olympus Corporation). The number of F4/80-positive cells was counted in four high-power fields per section. The α-SMA-positive area and the PSR-positive area were quantified using the image analysis software Fiji-ImageJ (1.54f).
A histological score was determined by a blinded investigator using the NAFLD histological scoring system of the Nonalcoholic Steatohepatitis Clinical Research Network. The total NAFLD activity score (NAS) was calculated from the total of the individual scores for steatosis ([…]), lobular inflammation (F4/80), and hepatocyte ballooning. The range of each parameter was 0 to 2 (ballooning) or 3 (the other two scores), where 0 indicates normal and 2 or 3 indicates severe. Staging of fibrosis was based on the NASH fibrosis stages, and a fibrosis stage ranging from 0 to 4 was determined according to Reference H (David E. Kleiner et al., 2005, Design and validation of a histological scoring system for nonalcoholic fatty liver disease, Hepatology, 41, 1313-1321).
All results are expressed as the mean±standard error of the mean (S.E.M.). Statistical analyses were performed using GraphPad Prism 7.0 (GraphPad Software). Significance upon comparison between two groups was evaluated by an unpaired two-tailed Student's t-test. […]. Statistical significance among three or more groups was determined by two-way analysis of variance (ANOVA) with Tukey's or Dunnett's post hoc test. Coloc2 was used to perform image analysis, automatic thresholding, and pixel intensity correlation for statistical processing. Statistical significance was assumed when the P value was <0.05.

| Structure (SMILES) | energy of phosphate bond in vivo [1] [kcal/mol] | permeation of the cell membrane [2] | change in acridine orange quenching level ([3]; 5 mM PEP, in presence of ATP, N=2) | inhibition of V-ATPase ([3]; up to 5 mM PEP (data not shown)) | uptake of ATP into isolated chromaffin granules [4] | inhibitory effect on V-ATPase [5] | concentration ([6]; 1 g of imeglimin hydrochloride daily for one week, 10080 min, read-out: blood imeglimin concentration) [µM] | transfer into the body ([6]; imeglimin) | destruction of the lobular structure, hepatocyte ballooning, and inflammatory cell infiltration ([7]; 8 weeks) | fibrosis stage ([7]; 8 weeks) | TAA-induced increase in F4/80-positive macrophages ([7]; 8 weeks (FIG. 27)) | TAA-induced increase in α-SMA-positive reaction ([7]; 8 weeks (FIG. 27)) | TAA-induced increase in fibrosis score ([7]; 8 weeks (FIG. 28)) | PSR staining-positive area ([7]; 8 weeks, TAA+IMG vs TAA group, N=6) |
| --- | --- | --- | --- | --- | --- | --- | --- | --- | --- | --- | --- | --- | --- | --- |
| C=C(OP(=O)(O)O)C(=O)O [PEP, phosphoenolpyruvic acid] | -14.8 | freely permeate the cell membrane | did not change the level of quenching | did not inhibit | inhibited |  |  |  |  |  |  |  |  |  |
| C[C@@H]1N=C(N)NC(N(C)C)=N1 [imeglimin] |  |  |  |  |  | neither imeglimin nor metformin exhibited a strong inhibitory effect | 9 | extremely low transfer into the body | reduced | reducing the fibrosis stage | strongly suppressed | strongly suppressed | suppressed | significantly reduced |
